Source: patent publication US9018241B2, “Hetero-substituted acetanilide derivatives as analgesic agents” (Janssen Pharmaceutica N.V., priority 2003, dated 2015)

Tests used:
[1] = test system: acetylcholine-induced abdominal constriction in mice; assay: Mouse Abdominal Irritant Test (MAIT); assay type: in vivo; settings: 300 mg/kg oral, male CD1 mice, % Inhibition=100×(Number of Nonresponders)/(Number of Animals in Group), read-out: Effect @ 300 mg/kg (Antinociceptive Effect in Mouse Abdominal Irritant Test)
Experimental: Male CD1 mice (weighing from 18-24 g) are used to determine the antinociceptive effects associated with the compositions of the invention. The mice are all dosed orally with the compounds specified, dissolved in distilled water or suspended in 0.5% MethocelTM (hydroxypropyl methylcellulose) in water. The dosing volume is 10 mL/kg.
The procedure used in detecting and comparing the analgesic activity of different classes of analgesic drugs for which there is a good correlation with human efficacy is the prevention of acetylcholine-induced abdominal constriction in mice (H. Collier et al., Br. J. Pharmacol., 32, 295 (1968)).
Mice, intubated with various doses of the compound or vehicle such as distilled water, or distilled water 0.5% Methocel™ (hydroxypropyl methylcellulose) in water, are injected intraperitoneally with a challenge dose of acetylcholine bromide. The acetylcholine is completely dissolved in distilled water at a concentration of […] and injected at the rate of 0.20 mL/20 g. For scoring purposes, an “abdominal constriction” is defined as a contraction of the abdominal musculature accompanied by arching of the back and extension of the limbs. The mice are observed for 10 minutes for the presence or absence of the abdominal constriction response beginning immediately after receiving the acetylcholine dose, administered at a certain time after the oral administration of the test drug or vehicle. Each mouse is used only once.
The percent of inhibition of this response is calculated as follows: % Inhibition=100×(Number of Nonresponders)/(Number of Animals in Group)

[2] = test system: rectal temperature of rats injected with yeast suspension; assay: Antipyretic evaluation in yeast-injected rats; assay type: in vivo
Experimental: Groups of 10 male rats are weighed, color-coded, rectal temperatures taken (24 hours±15 minutes prior to dose administration) and recorded. Food is removed but water remains available ad libitum. Each rat is injected subcutaneously into the central dorsal region with 5 ml of a 15% yeast suspension. Twenty-three hours (±15 minutes) after yeast injection, body weights and rectal temperatures are taken and recorded. Twenty-four hours (±15 minutes) after yeast injection, the vehicle and test articles are administered orally. Temperatures are taken and recorded one hour (±5 minutes) following test article or vehicle administration. The mean rectal temperatures for the test article and vehicle control groups are calculated at 23 and 25 hours (±15 minutes) and subjected to an ANOVA followed by a Tukey HSD Multiple Comparison Test (p≦0.05)—Systat, version 9.0.

Structure (SMILES) | responders at 300 mg/kg [1] [%] | decrease in body temperature relative to the vehicle-treated group ([2]; 600 mg/kg oral, ANOVA, Tukey HSD) | Antipyresis deg C. @ 600 mpk ([2]; 600 mpk oral, one hour after administration, 24 h after yeast injection) [deg C.]
Cc1cc(C(=O)Nc2ccc(O)cc2)n[nH]1 [5-Methyl-1H-pyrazole-3-carboxylic acid (4-hydroxy-phenyl)-amide] | 73.3 | – | –
O=C(Nc1ccc(O)cc1)c1ccccn1 [Pyridine-2-carboxylic acid (4-hydroxy-phenyl)-amide] | 60 | statistically significant (p≦1.05) decrease in body temperature | −2.17
O=C(CS)Nc1ccc(O)cc1 [N-(4-Hydroxy-phenyl)-2-mercapto-acetamide] | 40 | – | –
O=C(Nc1ccc(O)cc1)c1n[nH]c2ccccc12 [1H-Indazole-3-carboxylic acid (4-hydroxy-phenyl)-amide] | 20 | – | –
O=C(Nc1ccc(O)cc1)c1ccc[nH]1 [1H-Pyrrole-2-carboxylic acid (4-hydroxy-phenyl)-amide] | 86.7 | – | –
O=C(Nc1ccc(O)cc1)[C@H]1CCCN1 [(R)-Pyrrolidine-2-carboxylic acid (4-hydroxy-phenyl)-amide] | 20 | – | –
O=C(Nc1ccc(O)cc1)[C@@H]1CCCN1 [(S)-Pyrrolidine-2-carboxylic acid (4-hydroxy-phenyl)-amide] | 40 | – | –
CS(=O)(=O)CC(=O)Nc1ccc(O)cc1 [N-(4-Hydroxy-phenyl)-2-methanesulfonyl-acetamide] | 40 | – | –
CSCC(=O)Nc1ccc(O)cc1 [N-(4-Hydroxy-phenyl)-2-methylsulfanyl-acetamide] | 45 | – | –
